This passage reports Ratio and IC50 results from patent publication US11254686B1 (Corvus Pharmaceuticals, Inc., priority 2017, dated 2022).

Usually pIC50 stands for the IC50 on a negative log10 scale, so that one unit is a factor of ten.

pIC50: −log10 of the molar value.

Common to all, as to type: biochemical
The target in assay [1] is adenosine A2B receptor (Homo sapiens (Human), UniProt P29275). As to the kind of experiment: Adenosine receptor activity assay (Table 1), A2B activity. Conditions: for Ratio: A2A activity to the A2B activity, A2A/A2B; for pIC50: read-out: Ave A2B cAMP IC50.
Sequence of adenosine A2B receptor (P29275 whole entry): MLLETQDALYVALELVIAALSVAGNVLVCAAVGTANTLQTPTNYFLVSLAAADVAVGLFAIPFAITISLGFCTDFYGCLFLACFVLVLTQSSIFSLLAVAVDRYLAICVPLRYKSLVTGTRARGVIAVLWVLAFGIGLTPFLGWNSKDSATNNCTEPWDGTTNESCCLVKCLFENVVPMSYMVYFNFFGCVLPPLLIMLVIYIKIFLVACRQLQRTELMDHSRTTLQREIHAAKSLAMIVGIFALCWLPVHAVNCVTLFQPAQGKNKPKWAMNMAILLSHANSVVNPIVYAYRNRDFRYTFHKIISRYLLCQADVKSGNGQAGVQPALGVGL
Assay [2] deals with adenosine A1 receptor (Homo sapiens (Human), UniProt P30542). Nature of the assay: Adenosine receptor activity assay (Table 1), A1 cAMP. How it is done: (§1) Table 1. Compounds (e.g., Adenosine Receptor modulators) and activity assay results. The legend is as follows: A=<10 nM; B=10-50 nM; C=50-100 nM; D=100-500; and E=>500 nM. The ratio corresponds to the A2A activity to the A2B activity; or A2A/A2B.
Sequence of adenosine A1 receptor (P30542 whole entry): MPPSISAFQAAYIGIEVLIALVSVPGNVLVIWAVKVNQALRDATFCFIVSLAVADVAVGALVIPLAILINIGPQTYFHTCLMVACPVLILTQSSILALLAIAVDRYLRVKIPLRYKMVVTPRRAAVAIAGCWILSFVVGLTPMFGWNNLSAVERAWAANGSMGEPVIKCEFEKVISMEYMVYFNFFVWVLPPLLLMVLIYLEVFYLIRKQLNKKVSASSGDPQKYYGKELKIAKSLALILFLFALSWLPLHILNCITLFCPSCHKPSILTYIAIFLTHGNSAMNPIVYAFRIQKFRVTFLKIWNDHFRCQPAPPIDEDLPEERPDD

The target in assay [3] is adenosine A2A receptor (Homo sapiens (Human), UniProt P29274). As to the kind of experiment: Adenosine receptor activity assay (Table 1), A2A activity. Particulars: read-out: Ave A2A cAMP IC50.
Sequence of adenosine A2A receptor (P29274 whole entry): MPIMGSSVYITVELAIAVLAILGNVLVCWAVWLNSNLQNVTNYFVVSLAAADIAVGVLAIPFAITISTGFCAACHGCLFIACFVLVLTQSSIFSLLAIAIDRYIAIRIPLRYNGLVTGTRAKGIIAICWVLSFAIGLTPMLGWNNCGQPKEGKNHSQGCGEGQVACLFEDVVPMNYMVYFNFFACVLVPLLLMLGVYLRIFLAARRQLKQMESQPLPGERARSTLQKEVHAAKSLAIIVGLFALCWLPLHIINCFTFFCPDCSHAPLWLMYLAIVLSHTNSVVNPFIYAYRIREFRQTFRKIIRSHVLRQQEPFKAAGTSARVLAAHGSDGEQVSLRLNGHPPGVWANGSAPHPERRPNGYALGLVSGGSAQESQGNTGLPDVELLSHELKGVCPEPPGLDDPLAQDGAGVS
Assay [4] deals with adenosine A3 receptor (Homo sapiens (Human), UniProt P0DMS8). Nature of the assay: Adenosine receptor activity assay (Table 1), A3 cAMP. On the procedure: as §1
Sequence of adenosine A3 receptor (P0DMS8 whole entry): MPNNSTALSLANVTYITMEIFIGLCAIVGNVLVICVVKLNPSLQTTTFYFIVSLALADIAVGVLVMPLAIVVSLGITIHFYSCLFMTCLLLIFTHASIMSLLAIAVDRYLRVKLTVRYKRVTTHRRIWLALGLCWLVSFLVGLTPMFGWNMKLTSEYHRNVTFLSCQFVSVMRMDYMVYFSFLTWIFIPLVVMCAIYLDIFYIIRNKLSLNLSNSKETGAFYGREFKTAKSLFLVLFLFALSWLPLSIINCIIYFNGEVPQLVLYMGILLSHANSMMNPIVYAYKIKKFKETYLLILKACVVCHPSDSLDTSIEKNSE

With `Cc1cc2nc(N[C@@H](C)c3cncc(F)c3)nc(C(=O)N3CC[C@@H](N)C3)c2s1` [Example Z413, ((R)-3-Aminopyrrolidin-1-yl)(2-(((S)-1-(5-fluoropyridin-3-yl)ethyl)amino)-6-methylthieno[3,2-d]pyrimidin-4-yl)methanone], in assay [1], the Ratio is 126.84. Besides, the pIC50 in assay [1] is 7.30 to 8.00; in assay [2] it was < 6.30; in assay [3], < 6.30; in assay [4] it was < 6.30.
For the compound `Cc1csc2c(C(=O)N3CCCC3)nc(N[C@@H](C)c3cncc(F)c3)nc12` [Example Z414, (S)-(2-((1-(5-Fluoropyridin-3-yl)ethyl)amino)-7-methylthieno[3,2-d]pyrimidin-4-yl)(pyrrolidin-1-yl)methanone], the Ratio in assay [1] is listed as 19.11. Further, the pIC50 in assay [1] was > 8.00; in assay [2], 7.00 to 7.30; in assay [3], 7.30 to 8.00; in assay [4], 7.00 to 7.30.
In the case of `Cc1csc2c(C(=O)N3CC[C@H](O)C3)nc(N[C@@H](C)c3cncc(F)c3)nc12` [Example Z416, (2-(((S)-1-(5-Fluoropyridin-3-yl)ethyl)amino)-7-methylthieno[3,2-d]pyrimidin-4-yl)((S)-3-hydroxypyrrolidin-1-yl)methanone], in assay [1], the Ratio was determined as 52.64. In addition, the pIC50 was > 8.00 in assay [1], < 6.30 in assay [2], 6.30 to 7.00 in assay [3] and < 6.30 in assay [4].
On to `CNC1CN(C(=O)c2nc(N[C@@H](C)c3cncc(F)c3)nc3cc(C)sc23)C1` [Example Z418, (S)-(2-((1-(5-Fluoropyridin-3-yl)ethyl)amino)-6-methylthieno[3,2-d]pyrimidin-4-yl)(3-(methylamino)azetidin-1-yl)methanone], for which the Ratio in assay [1] was determined as 207.31. Moreover, the pIC50 in assay [1] is 7.30 to 8.00; in assay [2], < 6.30; in assay [3], < 6.30; in assay [4], < 6.30.
On to `COc1ccc(CCCNC(=O)c2nc(N[C@@H](C)c3cncc(F)c3)nc3ccsc23)cc1` [Example Z422, (S)-2-((1-(5-Fluoropyridin-3-yl)ethyl)amino)-N-(3-(4-methoxyphenyl)propyl)thieno[3,2-d]pyrimidine-4-carboxamide], for which, in assay [1], the Ratio is listed as 7.52. Besides, the pIC50 in assay [1] was 7.30 to 8.00; in assay [2] it was < 6.30; in assay [3] it was 6.30 to 7.00; in assay [4] it was < 6.30.
Consider `C[C@H](Nc1nc(C(=O)NCCc2cccc(O)c2)c2sccc2n1)c1cccnc1` [Example Z427, (S)—N-(3-Hydroxyphenethyl)-2-((1-(pyridin-3-yl)ethyl)amino)thieno[3,2-d]pyrimidine-4-carboxamide], for which the Ratio in assay [1] stood at 5.03. For the same compound, the pIC50 in assay [1] is 7.00 to 7.30; in assay [2] it was 6.30 to 7.00; in assay [3], 6.30 to 7.00; in assay [4] it was 6.30 to 7.00.
Turning to `C[C@H](Nc1nc(C(=O)NCCc2cccc(O)c2)c2sccc2n1)c1ccccn1` [Example Z428, (S)—N-(3-Hydroxyphenethyl)-2-((1-(pyridin-2-yl)ethyl)amino)thieno[3,2-d]pyrimidine-4-carboxamide], the Ratio in assay [1] was found to be 10.94. The pIC50 is 7.30 to 8.00 in assay [1], < 6.30 in assay [2], 6.30 to 7.00 in assay [3] and < 6.30 in assay [4].
For `Cc1cc2nc(N[C@@H](C)c3cncc(F)c3)nc(C(=O)N3CC(NC(=O)OC(C)(C)C)C3)c2s1` [Example Z429, tert-Butyl (S)-(1-(2-((1-(5-Fluoropyridin-3-yl)ethyl)amino)-6-methylthieno[3,2-d]pyrimidine-4-carbonyl)azetidin-3-yl)carbamate], the Ratio in assay [1] is 4.15. Moreover, the pIC50 is > 8.00 in assay [1], 7.00 to 7.30 in assay [2], 7.30 to 8.00 in assay [3] and 7.30 to 8.00 in assay [4].
Regarding `COc1ccc([C@H](C)Nc2nc(C(=O)NCc3cccnc3)c3sccc3n2)cc1` [Example Z435, (S)-2-((1-(4-Methoxyphenyl)ethyl)amino)-N-(pyridin-3-ylmethyl)thieno[3,2-d]pyrimidine-4-carboxamide], the Ratio in assay [1] is 0.04. In addition, the pIC50 in assay [1] is 6.30 to 7.00; in assay [2], 6.30 to 7.00; in assay [3], 7.30 to 8.00; in assay [4] it was 7.00 to 7.30.
On to `Cc1csc2c(C(=O)NCc3ccccn3)nc(N[C@@H](C)c3ccccn3)nc12` [Example Z451, (S)-7-Methyl-2-((1-(pyridin-2-yl)ethyl)amino)-N-(pyridin-2-ylmethyl)thieno[3,2-d]pyrimidine-4-carboxamide], for which the Ratio in assay [1] is reported as 0.35. The pIC50 in assay [1] was 7.30 to 8.00; in assay [2] it was 7.00 to 7.30; in assay [3] it was 7.30 to 8.00; in assay [4] it was 7.30 to 8.00.
Regarding `Cc1csc2c(C(=O)NC3CCC3)nc(N[C@@H](C)c3ccccn3)nc12` [Example Z456, (S)—N-Cyclobutyl-7-methyl-2-((1-(pyridin-2-yl)ethyl)amino)thieno[3,2-d]pyrimidine-4-carboxamide], the Ratio in assay [1] is recorded as 2.47. Besides, the pIC50 in assay [1] was > 8.00; in assay [2], < 6.30; in assay [3] it was 7.30 to 8.00; in assay [4], 7.00 to 7.30.
For `Cc1csc2c(C(=O)NCc3cccnc3)nc(N[C@@H](C)c3ccccn3)nc12` [Example Z458, (S)-7-Methyl-2-((1-(pyridin-2-yl)ethyl)amino)-N-(pyridin-3-ylmethyl)thieno[3,2-d]pyrimidine-4-carboxamide] the same measures were 0.72, 7.30 to 8.00, < 6.30, 7.30 to 8.00 and < 6.30.
For `Cc1csc2c(C(=O)N3CCCC3)nc(N[C@@H](C)c3ccccn3)nc12` [Example Z459, (S)-(7-methyl-2-((1-(pyridin-2-yl)ethyl)amino)thieno[3,2-d]pyrimidin-4-yl)(pyrrolidin-1-yl)methanone] the same measures were 2.40, 7.30 to 8.00, < 6.30, 7.30 to 8.00 and < 6.30.
For `Cc1cc2nc(N[C@@H](C)c3ccccn3)nc(C(=O)NCc3ccccn3)c2s1` [Example Z461, (S)-6-Methyl-2-((1-(pyridin-2-yl)ethyl)amino)-N-(pyridin-2-ylmethyl)thieno[3,2-d]pyrimidine-4-carboxamide] the same measures were 3.15, 7.30 to 8.00, < 6.30, 7.30 to 8.00 and 7.00 to 7.30.
`Cc1cc2nc(N[C@@H](C)c3ccccn3)nc(C(=O)NCc3cccnc3)c2s1` [Example Z462, (S)-6-Methyl-2-((1-(pyridin-2-yl)ethyl)amino)-N-(pyridin-3-ylmethyl)thieno[3,2-d]pyrimidine-4-carboxamide]: in assay [1], the Ratio is on record as 2.70. The pIC50 is 7.30 to 8.00 in assay [1], < 6.30 in assay [2], 7.00 to 7.30 in assay [3] and 7.00 to 7.30 in assay [4].
`COC[C@@H]1CCN(C(=O)c2nc(N[C@@H](C)c3ccccn3)nc3cc(C)sc23)C1` [Example Z467, ((R)-3-(Methoxymethyl)pyrrolidin-1-yl)(6-methyl-2-(((S)-1-(pyridin-2-yl)ethyl)amino)thieno[3,2-d]pyrimidin-4-yl)methanone]: the Ratio in assay [1] is recorded as 4.90. Besides, the pIC50 in assay [1] was 7.30 to 8.00; in assay [2] it was < 6.30; in assay [3], 6.30 to 7.00; in assay [4], 7.00 to 7.30.
On the same counts, the results for `COC[C@H]1CCN(C(=O)c2nc(N[C@@H](C)c3ccccn3)nc3cc(C)sc23)C1` [Example Z468, ((S)-3-(Methoxymethyl)pyrrolidin-1-yl)(6-methyl-2-(((S)-1-(pyridin-2-yl)ethyl)amino)thieno[3,2-d]pyrimidin-4-yl)methanone] are 24.67, 7.30 to 8.00, < 6.30, < 6.30 and < 6.30.
As to `COc1ccc(CNC(=O)c2nc(N[C@@H](C)c3ccccn3)nc3cc(C)sc23)cn1` [Example Z469, (S)—N-((6-Methoxypyridin-3-yl)methyl)-6-methyl-2-((1-(pyridin-2-yl)ethyl)amino)thieno[3,2-d]pyrimidine-4-carboxamide], the Ratio in assay [1] is 36.71. The pIC50 in assay [1] was 7.30 to 8.00; in assay [2], < 6.30; in assay [3], < 6.30; in assay [4], < 6.30.
For `Cc1cc2nc(N[C@@H](C)c3cncc(F)c3)nc(C(=O)N3CC[C@H](NC(=O)OCc4ccccc4)C3)c2s1` [Example Z473, Benzyl ((S)-1-(2-(((S)-1-(5-fluoropyridin-3-yl)ethyl)amino)-6-methylthieno[3,2-d]pyrimidine-4-carbonyl)pyrrolidin-3-yl)carbamate], the Ratio in assay [1] is listed as 20.60. The pIC50 in assay [1] is 7.30 to 8.00; in assay [2], < 6.30; in assay [3], < 6.30; in assay [4] it was < 6.30.
Take `Cc1cc2nc(N[C@@H](C)c3cncc(F)c3)nc(C(=O)N3CC(CNC(=O)OC(C)(C)C)C3)c2s1` [Example Z475, tert-Butyl (S)-((1-(2-((1-(5-fluoropyridin-3-yl)ethyl)amino)-6-methylthieno[3,2-d]pyrimidine-4-carbonyl)azetidin-3-yl)methyl)carbamate]: the Ratio in assay [1] is given as 7.45. In addition, the pIC50 is 7.30 to 8.00 in assay [1], < 6.30 in assay [2], 6.30 to 7.00 in assay [3] and < 6.30 in assay [4].
